In turn, `COc1cc(COc2nn(C)cc2CO)ccc1OCc1nc(-c2ccccc2)oc1C` [Example 266, (3-{[3-methoxy-4-(5-methyl-2-phenyl-1,3-oxazol-4-ylmethoxy)benzyl]oxy}-1-methyl-1H-pyrazol-4-yl)methanol] returned a melting point of 108 to 109 °C.

Take `COc1cc(COc2nn(C)cc2C=O)ccc1OCc1nc(-c2ccccc2)oc1C` [Example 267, 3-{[3-methoxy-4-(5-methyl-2-phenyl-1,3-oxazol-4-ylmethoxy)benzyl]oxy}-1-methyl-1H-pyrazole-4-carbaldehyde]: the melting point was 123 to 124 °C.

Compound `COc1cc(COc2nn(C)cc2C(N)=O)ccc1OCc1nc(-c2ccccc2)oc1C` [Example 268, 3-{[3-methoxy-4-(5-methyl-2-phenyl-1,3-oxazol-4-ylmethoxy)benzyl]oxy}-1-methyl-1H-pyrazole-4-carboxamide] had a melting point of 168 to 169 °C.

For `COc1cc(COc2nn(C)cc2C(=O)N(C)OC)ccc1OCc1nc(-c2ccccc2)oc1C` [Example 269, N-methoxy-N-methyl-3-{[3-methoxy-4-(5-methyl-2-phenyl-1,3-oxazol-4-ylmethoxy)benzyl]oxy}-1-methyl-1H-pyrazole-4-carboxamide], the melting point lay within 138 to 139 °C.

`COc1cc(COc2nn(C)cc2C(C)=O)ccc1OCc1nc(-c2ccccc2)oc1C` [Example 270, 1-(3-{[3-methoxy-4-(5-methyl-2-phenyl-1,3-oxazol-4-ylmethoxy)benzyl]oxy}-1-methyl-1H-pyrazol-4-yl)ethanone] registered a melting point of 170 to 171 °C.

In the case of `COc1cc(COc2nn(C)cc2C(C)O)ccc1OCc1nc(-c2ccccc2)oc1C` (stereo not drawn) [Example 271, 1-(3-{[3-methoxy-4-(5-methyl-2-phenyl-1,3-oxazol-4-ylmethoxy)benzyl]oxy}-1-methyl-1H-pyrazol-4-yl)ethanol], the melting point is 94 to 95 °C.

`CCOC(=O)c1cn(-c2ccccc2)nc1OCc1ccc(OCc2nc(-c3ccccc3)oc2C)c(OC)c1` [Example 272, ethyl 3-{[3-methoxy-4-(5-methyl-2-phenyl-1,3-oxazol-4-ylmethoxy)benzyl]oxy}-1-phenyl-1H-pyrazole-4-carboxylate] showed a melting point of 160 to 161 °C.

Regarding `COc1cc(COc2nn(-c3ccccc3)cc2C(=O)O)ccc1OCc1nc(-c2ccccc2)oc1C` [Example 273, 3-{[3-methoxy-4-(5-methyl-2-phenyl-1,3-oxazol-4-ylmethoxy)benzyl]oxy}-1-phenyl-1H-pyrazole-4-carboxylic acid], the melting point lay in the range of 209 to 210 °C.

Turning to `COc1cc(COc2nn(-c3ccccc3)cc2C=O)ccc1OCc1nc(-c2ccccc2)oc1C` [Example 275, 3-{[3-methoxy-4-(5-methyl-2-phenyl-1,3-oxazol-4-ylmethoxy)benzyl]oxy}-1-phenyl-1H-pyrazole-4-carbaldehyde], the melting point was in the range of 142 to 143 °C.

Compound `COc1cc(COc2nn(-c3ccccc3)cc2C(N)=O)ccc1OCc1nc(-c2ccccc2)oc1C` [Example 276, 3-{[3-methoxy-4-(5-methyl-2-phenyl-1,3-oxazol-4-ylmethoxy)benzyl]oxy}-1-phenyl-1H-pyrazole-4-carboxamide] yielded a melting point of 190 to 191 °C.

For the compound `COc1cc(CC(=O)Nc2nn(-c3ccccc3)cc2C=O)ccc1OCc1nc(-c2ccccc2)oc1C` [Example 277, N-(4-formyl-1-phenyl-1H-pyrazol-3-yl)-2-{3-methoxy-4-[(5-methyl-2-phenyl-1,3-oxazol-4-yl)methoxy]phenyl}acetamide], the melting point is 156 to 158 °C.

The compound `COc1cc(COc2nn(-c3ccccc3)cc2C#N)ccc1OCc1nc(-c2ccccc2)oc1C` [Example 278, 3-{[3-methoxy-4-(5-methyl-2-phenyl-1,3-oxazol-4-ylmethoxy)benzyl]oxy}-1-phenyl-1H-pyrazole-4-carbonitrile] came in with a melting point of 174 to 175 °C.

In turn, `COc1cc(COc2nc(-c3ccccc3)ncc2C=O)ccc1OCc1nc(-c2ccco2)oc1C` [Example 280, 4-[(4-{[2-(2-furyl)-5-methyl-1,3-oxazol-4-yl]methoxy}-3-methoxybenzyl)oxy]-2-phenylpyrimidine-5-carbaldehyde] showed a melting point of 143 to 144 °C.

The compound `COc1cc(COc2nn(-c3ccccc3)cc2/C=C/C(=O)O)ccc1OCc1nc(-c2ccccc2)oc1C` [Example 281, (E)-3-(3-{[3-methoxy-4-(5-methyl-2-phenyl-1,3-oxazol-4-ylmethoxy)benzyl]oxy}-1-phenyl-1H-pyrazol-4-yl)-2-propenoic acid] gave a melting point of 188 to 189 °C.

`COc1cc(COc2nn(-c3ccccc3)cc2CC#N)ccc1OCc1nc(-c2ccccc2)oc1C` [Example 283, (3-{[3-methoxy-4-(5-methyl-2-phenyl-1,3-oxazol-4-ylmethoxy)benzyl]oxy}-1-phenyl-1H-pyrazol-4-yl)acetonitrile] returned a melting point of 137 to 138 °C.

For the compound `COc1cc(C(=O)Nc2nn(-c3ccccc3)cc2C=O)ccc1OCc1nc(-c2ccco2)oc1C` [Example 290, N-(4-formyl-1-phenyl-1H-pyrazol-3-yl)-4-{[2-(2-furyl)-5-methyl-1,3-oxazol-4-yl]methoxy}-3-methoxybenzamide], the melting point lay in the range of 212 to 213 °C.

Turning to `COC(=O)c1cc(OCc2ccc(OCc3nc(-c4ccccc4)oc3C)c(OC)c2)nn1-c1ccccc1` [Example 291, methyl 3-{[3-methoxy-4-(5-methyl-2-phenyl-1,3-oxazol-4-ylmethoxy)benzyl]oxy}-1-phenyl-1H-pyrazole-5-carboxylate], the melting point lay in the range of 143 to 144 °C.

The compound `COc1cc(COc2cc(C(=O)O)n(-c3ccccc3)n2)ccc1OCc1nc(-c2ccccc2)oc1C` [Example 292, 3-{[3-methoxy-4-(5-methyl-2-phenyl-1,3-oxazol-4-ylmethoxy)benzyl]oxy}-1-phenyl-1H-pyrazole-5-carboxylic acid] had a melting point of 192 to 193 °C.

With `COc1cc(COc2cc(CO)n(-c3ccccc3)n2)ccc1OCc1nc(-c2ccccc2)oc1C` [Example 293, (3-{[3-methoxy-4-(5-methyl-2-phenyl-1,3-oxazol-4-ylmethoxy)benzyl]oxy}-1-phenyl-1H-pyrazol-5-yl)methanol], the melting point was 146 to 147 °C.

As to `COc1cc(COc2cc(C=O)n(-c3ccccc3)n2)ccc1OCc1nc(-c2ccccc2)oc1C` [Example 294, 3-{[3-methoxy-4-(5-methyl-2-phenyl-1,3-oxazol-4-ylmethoxy)benzyl]oxy}-1-phenyl-1H-pyrazole-5-carbaldehyde], the melting point lay within 119 to 120 °C.

`CCOC(=O)/C=C/c1cn(-c2ccc(C(F)(F)F)cc2)nc1OCc1ccc(OCc2nc(-c3ccccc3)oc2C)c(OC)c1` [Example 295, ethyl (2E)-3-{3-({3-methoxy-4-[(5-methyl-2-phenyl-1,3-oxazol-4-yl)methoxy]benzyl}oxy)-1-[4-(trifluoromethyl)phenyl]-1H-pyrazol-4-yl}-2-propenoate]: the melting point is 205 to 206 °C.

For `COc1cc(COc2nn(-c3ccc(C(F)(F)F)cc3)cc2/C=C/CO)ccc1OCc1nc(-c2ccccc2)oc1C` [Example 296, (2E)-3-{3-({3-methoxy-4-[(5-methyl-2-phenyl-1,3-oxazol-4-yl)methoxy]benzyl}oxy)-1-[4-(trifluoromethyl)phenyl]-1H-pyrazol-4-yl}-2-propen-1-ol], the melting point lay within 118 to 119 °C.

In turn, `COc1cc(COc2nn(-c3ccc(C(F)(F)F)cc3)cc2/C=C/C(=O)OCOC(=O)C(C)(C)C)ccc1OCc1nc(-c2ccccc2)oc1C` [Example 297, [(2,2-dimethylpropanoyl)oxy]methyl (2E)-3-{3-({3-methoxy-4-[(5-methyl-2-phenyl-1,3-oxazol-4-yl)methoxy]benzyl}oxy)-1-[4-(trifluoromethyl)phenyl]-1H-pyrazol-4-yl}-2-propenoate] registered a melting point of 131 to 132 °C.

`COc1cc(COc2cc(C#N)n(-c3ccccc3)n2)ccc1OCc1nc(-c2ccccc2)oc1C` [Example 298, 3-{[3-methoxy-4-(5-methyl-2-phenyl-1,3-oxazol-4-ylmethoxy)benzyl]oxy}-1-phenyl-1H-pyrazole-5-carbonitrile] gave a melting point of 120 to 121 °C.

Turning to `CCOC(=O)/C=C/c1cc(OCc2ccc(OCc3nc(-c4ccccc4)oc3C)c(OC)c2)nn1-c1ccccc1` [Example 299, ethyl (E)-3-(3-{[3-methoxy-4-(5-methyl-2-phenyl-1,3-oxazol-4-ylmethoxy)benzyl]oxy}-1-phenyl-1H-pyrazol5-yl)-2-propenoate], the melting point lay in the range of 121 to 122 °C.

`COc1cc(COc2cc(/C=C/C(=O)O)n(-c3ccccc3)n2)ccc1OCc1nc(-c2ccccc2)oc1C` [Example 300, (E)-3-(3-{[3-methoxy-4-(5-methyl-2-phenyl-1,3-oxazol-4-ylmethoxy)benzyl]oxy}-1-phenyl-1H-pyrazol5-yl)-2-propenoic acid] displayed a melting point of 194 to 195 °C.

For the compound `COc1cc(CC(=O)Nc2nn(-c3ccccc3)cc2C=O)ccc1OCc1nc(-c2ccco2)oc1C` [Example 303, N-(4-formyl-1-phenyl-1H-pyrazol-3-yl)-2-(4-{[2-(2-furyl)-5-methyl-1,3-oxazol-4-yl]methoxy}-3-methoxyphenyl)acetamide], the melting point was in the range of 190 to 191 °C.

Take `Cc1oc(-c2ccccc2)nc1COc1ccc(OCc2oc(-c3ccccc3)nc2C=O)cc1` [Example 304, 5-({4-[(5-methyl-2-phenyl-1,3-oxazol-4-yl)methoxy]phenoxy}methyl)-2-phenyl-1,3-oxazole-4-carbaldehyde]: the melting point was in the range of 127 to 128 °C.

Compound `COc1cc(COc2nc(-c3ccccc3)ncc2C(=O)O)ccc1OCc1nc(-c2ccco2)oc1C` [Example 305, 4-[(4-{[2-(2-furyl)-5-methyl-1,3-oxazol-4-yl]methoxy}-3-methoxybenzyl)oxy]-2-phenylpyrimidine-5-carboxylic acid] registered a melting point of 163 to 164 °C.

In turn, `COC(=O)c1cccc(-c2nc(COc3ccc(COc4nn(-c5ccccc5)cc4/C=C/c4nc(N5CCOCC5)sc4C)cc3OC)c(C)o2)c1` [Example 309, methyl 3-[4-({2-methoxy-4-[({4-[(E)-2-(5-methyl-2-morpholin-4-yl-1,3-thiazol-4-yl)ethenyl]-1-phenyl-1H-pyrazol-3-yl}oxy)methyl]phenoxy}methyl)-5-methyl-1,3-oxazol-2-yl]benzoate] had a melting point of 183 to 184 °C.

As a reminder, the melting point is the temperature of the solid-liquid transition.

The values above are taken from patent US7368578B2, “Five-membered heterocyclic compounds” (Takeda Pharmaceutical Company Limited, priority 2002, dated 2008).
